The results in this text go back to publication PMC10299909, “Structural basis of efficacy-driven ligand selectivity at GPCRs” (Nature Chemical Biology, 2023).

Numbering of substitutions follows the chain as printed. Where “and” joins values, the source holds several entries; their conditions need not be identical. Identical values can stand only once. Like-named read-outs stand apart in the source and are kept apart here.

Experiment [1] concerns the target T1, M2 mAChR (Homo sapiens, UniProt P08172).
T1 sequence (P08172 1-466): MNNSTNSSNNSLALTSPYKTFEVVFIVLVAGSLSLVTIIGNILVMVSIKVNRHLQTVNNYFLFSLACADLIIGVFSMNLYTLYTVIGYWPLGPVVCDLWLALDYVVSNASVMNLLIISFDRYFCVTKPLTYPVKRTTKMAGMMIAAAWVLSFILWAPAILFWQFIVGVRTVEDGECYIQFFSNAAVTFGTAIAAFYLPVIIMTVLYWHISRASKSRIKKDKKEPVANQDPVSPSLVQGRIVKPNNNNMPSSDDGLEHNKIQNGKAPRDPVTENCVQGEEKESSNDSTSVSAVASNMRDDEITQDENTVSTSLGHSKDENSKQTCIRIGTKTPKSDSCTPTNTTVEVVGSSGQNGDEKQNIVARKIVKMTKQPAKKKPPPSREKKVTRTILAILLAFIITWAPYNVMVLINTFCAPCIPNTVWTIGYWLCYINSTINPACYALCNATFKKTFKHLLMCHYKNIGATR
In words: cell-based.

For experiment [2], the target named is T2, M5 mAChR (Homo sapiens, UniProt P08912).
T2 construct: expressed in transfected cells; host or cells: CHO FlpIn
T2 sequence (P08912 1-532): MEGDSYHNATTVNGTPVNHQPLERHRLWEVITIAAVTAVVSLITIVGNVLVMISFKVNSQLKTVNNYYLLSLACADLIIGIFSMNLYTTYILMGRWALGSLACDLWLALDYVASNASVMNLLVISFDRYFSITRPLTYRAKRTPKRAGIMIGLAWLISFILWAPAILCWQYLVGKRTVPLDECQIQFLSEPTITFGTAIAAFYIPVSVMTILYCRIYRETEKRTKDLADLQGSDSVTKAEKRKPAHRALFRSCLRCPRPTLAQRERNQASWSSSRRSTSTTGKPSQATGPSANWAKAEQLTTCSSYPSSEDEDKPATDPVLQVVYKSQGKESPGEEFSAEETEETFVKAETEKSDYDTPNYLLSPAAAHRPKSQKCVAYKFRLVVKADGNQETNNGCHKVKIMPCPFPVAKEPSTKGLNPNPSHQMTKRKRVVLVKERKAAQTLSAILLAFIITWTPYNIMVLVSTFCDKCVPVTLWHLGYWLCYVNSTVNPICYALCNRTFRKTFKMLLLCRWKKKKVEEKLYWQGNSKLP
Briefly: whole-cell [3H]NMS radioligand competition binding, CHO FlpIn cells. To be noted: first set of experiments, read-out: pKI (radioligand binding competition with [3H]NMS) (converted). (Displacement assays read how much labelled ligand stays bound in the presence of the test substance.)

A further experiment deals with M1 mAChR (Homo sapiens, UniProt P11229). Briefly: cell-based.
Experiment [3] addresses T3, M4 mAChR (Homo sapiens, UniProt P08173).
T3 construct: expressed in transfected cells; host or cells: CHO FlpIn
T3 sequence (P08173 1-479): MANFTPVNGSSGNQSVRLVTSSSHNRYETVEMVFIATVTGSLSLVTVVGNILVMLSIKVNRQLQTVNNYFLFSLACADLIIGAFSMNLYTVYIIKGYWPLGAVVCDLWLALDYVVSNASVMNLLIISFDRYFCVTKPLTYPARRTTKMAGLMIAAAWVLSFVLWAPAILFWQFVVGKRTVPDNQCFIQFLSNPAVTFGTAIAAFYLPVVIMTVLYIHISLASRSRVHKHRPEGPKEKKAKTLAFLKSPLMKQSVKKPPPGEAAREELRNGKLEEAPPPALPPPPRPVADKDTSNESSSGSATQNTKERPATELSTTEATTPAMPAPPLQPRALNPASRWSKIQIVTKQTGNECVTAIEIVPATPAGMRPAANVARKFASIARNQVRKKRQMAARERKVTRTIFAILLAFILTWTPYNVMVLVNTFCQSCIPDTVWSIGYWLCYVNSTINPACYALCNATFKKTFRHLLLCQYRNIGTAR
Briefly: whole-cell [3H]NMS radioligand competition binding, CHO FlpIn cells. To be noted: M4; first set of experiments (top 5 rows); read-out: pKI (radioligand binding competition with [3H]NMS) (converted).

In experiment [4] the target is T4, M3 mAChR (Homo sapiens, UniProt P20309).
T4 construct: expressed in transfected cells; host or cells: CHO FlpIn
Described as above. As to conditions: first set of experiments, read-out: pKI (radioligand binding competition with [3H]NMS) (converted).

The next experiment concerns the target T5, M4 WT mAChR (Homo sapiens, UniProt P08173).
T5 construct: expressed in transfected cells; host or cells: CHO FlpIn
T5 sequence (P08173 1-479): T3 sequence (P08173 1-479)
In words: BRET TRUPATH GoA activation (G-protein dissociation) assay. To be noted: T=6min, listed as Ach. The class given is cell-based. How it is done:
(§1) Cells were seeded at 20,000 cells per well into 96-well flat-bottom white culture plates and grown for 4 h. Plasmid DNA (20 ng per well of Gα, Gβ and Gγ at a 1:1:1 ratio) and linear polyethylenimine were added to the cells in a 1:6 ratio. To allow for protein expression, cells were then incubated (37 °C, 5% CO2) for 48 h before the measurement of agonist activity. […] The initial 4 min of measurement was considered baseline counts before ligand or vehicle addition, with BRET readings every 2 min for a further 8 min following drug or vehicle addition.
(§2) Concentration–response curves were fitted to a three-parameter logistic equation to derive ligand potency (pEC50) estimates.
(§3) Data was analyzed using the operational model of agonism to quantify the efficacy (Logτ) of each agonist in each cell line, and subsequently corrected for receptor expression level differences between cell lines (Logτc), using the M2 WT as reference. […] Source data
In general terms: BRET reads energy transfer from a luciferase to a nearby fluorophore.

Another experiment addresses T6, M2 WT mAChR (Homo sapiens, UniProt P08172).
T6 construct: expressed in transfected cells; host or cells: CHO FlpIn
T6 sequence (P08172 1-466): T1 sequence (P08172 1-466)
The experiment is described as above. As to conditions: M2 wt, T=6min, individual experiments, listed as Ach. It counts as cell-based. How it is done: as §1, §2, §3

The target in experiment [5] is T7, M4 L190F mAChR (Homo sapiens, UniProt P08173, L190F).
T7 construct: expressed in transfected cells; host or cells: CHO FlpIn
T7 sequence (P08173 1-479 L190F): T3 sequence (P08173 1-479) with L190F
The description is as above. To be noted: T=6min, listed as Ach. It counts as cell-based. How it is done:
as §1, §2, §3

The target in experiment [6] is T4, M3 mAChR. Briefly: pERK1/pERK2 signaling assay (AlphaScreen SureFire), CHO FlpIn cells. The class given is cell-based. As to conditions: M3; first set of experiments. (In general: In Alpha technology, singlet oxygen from a donor bead excites a nearby acceptor bead.)
Experiment [7] addresses T7, M4 L190F mAChR. The description is as above. The class given is cell-based.
Experiment [8] concerns the target T2, M5 mAChR. The description is as above. The class given is cell-based. As to conditions: first set of experiments.
Experiment [9] has as its target M2 mAChR (Homo sapiens, UniProt P08172).
Experiment [10] concerns the target M4 mAChR (Homo sapiens, UniProt P08173). Briefly: [3H]NMS competition binding, purified receptor in lipid nanodiscs with Gi1 heterotrimer.
Where [11] appears, read: Log[Ligand] (M) -4, individual experiments.
[12] abbreviates: Log[Ligand] (M) -9, individual experiments.
The mark [13] stands for this setting: Log[Ligand] (M) -10, individual experiments.
[14] abbreviates: Log[Ligand] (M) -12, individual experiments.
Setting [15] is: Receptor : G protein Molar Ratio 1:0.

In the case of `CCCOc1nsnc1C1=CCCN(C)C1` [3-carbon tail analog of xanomeline], the Ki on M2 mAChR [1] is 0.0229 µM; on M5 mAChR [2], 0.049 µM; on M1 mAChR, 0.0275 µM; on M4 mAChR [3], 0.0372 µM; on M3 mAChR [4], 0.0347 µM.

In the case of `CC(=O)OCC[N+](C)(C)C` [Acetylcholine, acetylcholine], the GoA activation response at M4 WT mAChR (setting [11]) is 104.45 % Emax ACh and 102.662 % Emax ACh and 101.586 % Emax ACh and 101.003 % Emax ACh and 104.541 % Emax ACh; at M4 WT mAChR (setting [12]) it was 1.1727 % Emax ACh and 5.239 % Emax ACh and 5.623 % Emax ACh and -1.171 % Emax ACh and 2.894 % Emax ACh; on M4 WT mAChR (setting [13]), 3.695 % Emax ACh and 0.8905 % Emax ACh and -7.035 % Emax ACh and 0.4855 % Emax ACh and -3.187 % Emax ACh; at M4 WT mAChR (setting [14]) it was -21.8016 % Emax ACh and 1.058 % Emax ACh and -6.101 % Emax ACh and 1.717 % Emax ACh and -0.3266 % Emax ACh; at M2 WT mAChR (Log[Ligand] (M) -4), 103.24 % Emax ACh and 95.841 % Emax ACh and 98.7568 % Emax ACh and 99.8054 % Emax ACh and 99.3813 % Emax ACh; on M2 WT mAChR (Log[Ligand] (M) -8), 9.766 % Emax ACh. For the same compound, the GoA activation response at M2 WT mAChR (Log[Ligand] (M) -9) is 1.63 % Emax ACh and -3.189 % Emax ACh and -6.851 % Emax ACh and 0.4007 % Emax ACh and 0.416 % Emax ACh; on M2 WT mAChR (Log[Ligand] (M) -10) it was -3.058 % Emax ACh and 8.597 % Emax ACh and 0.3009 % Emax ACh and 1.683 % Emax ACh and 4.386 % Emax ACh; on M2 WT mAChR (Log[Ligand] (M) -12), 6.399 % Emax ACh and 0.8864 % Emax ACh and 8.076 % Emax ACh and 1.671 % Emax ACh and -0.9147 % Emax ACh; on M4 L190F mAChR [5] (setting [11]) it was 106.304 % Emax ACh and 103.075 % Emax ACh and 107.769 % Emax ACh and 104.574 % Emax ACh and 105.838 % Emax ACh; on M4 L190F mAChR [5] (Log[Ligand] (M) -5, individual experiments), 99.5547 % Emax ACh and 105.081 % Emax ACh and 94.0499 % Emax ACh and 100.086 % Emax ACh and 98.7018 % Emax ACh; at M4 L190F mAChR [5] (Log[Ligand] (M) -6, individual experiments) it was 84.6502 % Emax ACh and 86.1198 % Emax ACh and 94.9784 % Emax ACh and 91.5878 % Emax ACh and 95.0975 % Emax ACh. In addition, the GoA activation response is 59.4174 % Emax ACh and 69.5753 % Emax ACh and 70.634 % Emax ACh and 76.3729 % Emax ACh and 78.8634 % Emax ACh at M4 L190F mAChR [5] (Log[Ligand] (M) -7, individual experiments); 12.4418 % Emax ACh and 20.3625 % Emax ACh and 19.5412 % Emax ACh and 25.1119 % Emax ACh and 33.5842 % Emax ACh at M4 L190F mAChR [5] (Log[Ligand] (M) -8, individual experiments); 1.269 % Emax ACh and 1.901 % Emax ACh and 28.8031 % Emax ACh and 3.9293 % Emax ACh and 7.995 % Emax ACh on M4 L190F mAChR [5] (setting [12]); -3.41 % Emax ACh and 9.605 % Emax ACh and 0.2419 % Emax ACh and -0.9 % Emax ACh and 0.4231 % Emax ACh on M4 L190F mAChR [5] (setting [13]); 2.811 % Emax ACh and -10.3446 % Emax ACh and -23.8686 % Emax ACh and 0.009116 % Emax ACh and -3.752 % Emax ACh at M4 L190F mAChR [5] (setting [14]). For the same compound, the entries for the “Emax pERK1/2” value at M3 mAChR [6], at M4 L190F mAChR [7] and at M5 mAChR [8] were 98 ± 5 % FBS stimulation, 94 ± 8 % FBS stimulation and 90 ± 4 % FBS stimulation, respectively. The “Fraction of receptors in a G protein-dependent high-affinity state” value on M2 mAChR [9] (setting [15]) turned out to be 0.13 ± 0.10; on M2 mAChR [9] (Receptor : G protein Molar Ratio 1:50), 0.33 ± 0.10; at M2 mAChR [9] (Receptor : G protein Molar Ratio 1:1000), 0.57 ± 0.11; on M2 mAChR [9] (Receptor : G protein Molar Ratio 1:2000), 0.89 ± 0.12; on M4 mAChR [10] (setting [15]), 0.00 ± 0.04; on M4 mAChR [10] (Receptor : G protein Molar Ratio 1:125), 0.30 ± 0.04. In addition, the “Fraction of receptors in a G protein-dependent high-affinity state” value on M4 mAChR [10] (Receptor : G protein Molar Ratio 1:500) is given as 0.71 ± 0.03.
